We go through eleven molecules from ChEMBL document CHEMBL1201862, “PubChem BioAssay data set” (2004).

Assay [1] is described as follows: A cytotoxicity screen of small molecule inhibitors of the PhoP region in Salmonella typhi identified in the primary screen. [Related pubchem assays: 1850, 1864, 1985 ]. The class given is functional.
In assay [2] the target is T1, Cytochrome P450 2C9 (Homo sapiens, UniProt P11712). The settings on record: Potency.
The target of assay [3] is Cytochrome P450 2D6 (Homo sapiens, UniProt P10635).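 Also: CYP2D6 member of a cytochrome P450 panel assay.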
Chain of Cytochrome P450 2D6 (P10635 whole entry): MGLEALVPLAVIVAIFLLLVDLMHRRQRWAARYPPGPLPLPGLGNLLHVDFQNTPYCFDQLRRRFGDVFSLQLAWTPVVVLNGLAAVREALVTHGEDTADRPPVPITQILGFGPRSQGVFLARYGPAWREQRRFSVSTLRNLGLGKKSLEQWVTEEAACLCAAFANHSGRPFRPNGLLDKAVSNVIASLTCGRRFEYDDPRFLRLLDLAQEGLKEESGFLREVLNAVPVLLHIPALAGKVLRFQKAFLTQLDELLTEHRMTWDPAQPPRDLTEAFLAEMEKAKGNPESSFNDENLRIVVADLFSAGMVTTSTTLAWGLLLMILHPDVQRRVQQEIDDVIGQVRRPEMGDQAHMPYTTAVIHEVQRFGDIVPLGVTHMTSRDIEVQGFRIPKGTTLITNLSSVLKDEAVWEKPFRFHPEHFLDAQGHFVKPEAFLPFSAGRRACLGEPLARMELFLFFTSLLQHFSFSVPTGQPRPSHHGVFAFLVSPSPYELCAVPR
The target of assay [4] is T1, Cytochrome P450 2C9.
For assay [5], the target named is T2, Corticotropin-releasing factor receptor 2/Corticotropin-releasing factor-binding protein (Homo sapiens, UniProt P24387+Q13324).
T2 sequence (Q13324 whole entry): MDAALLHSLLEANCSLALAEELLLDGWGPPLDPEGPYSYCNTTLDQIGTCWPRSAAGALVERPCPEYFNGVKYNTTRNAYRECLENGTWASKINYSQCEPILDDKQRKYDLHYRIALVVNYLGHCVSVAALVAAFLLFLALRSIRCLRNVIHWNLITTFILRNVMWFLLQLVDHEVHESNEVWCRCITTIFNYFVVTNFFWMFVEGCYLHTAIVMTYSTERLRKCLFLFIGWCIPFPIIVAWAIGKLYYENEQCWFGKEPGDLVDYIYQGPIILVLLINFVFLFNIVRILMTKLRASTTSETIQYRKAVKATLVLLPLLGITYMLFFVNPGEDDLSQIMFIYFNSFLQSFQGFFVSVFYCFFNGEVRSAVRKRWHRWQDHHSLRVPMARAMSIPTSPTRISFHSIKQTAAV
T2 sequence (P24387 whole entry): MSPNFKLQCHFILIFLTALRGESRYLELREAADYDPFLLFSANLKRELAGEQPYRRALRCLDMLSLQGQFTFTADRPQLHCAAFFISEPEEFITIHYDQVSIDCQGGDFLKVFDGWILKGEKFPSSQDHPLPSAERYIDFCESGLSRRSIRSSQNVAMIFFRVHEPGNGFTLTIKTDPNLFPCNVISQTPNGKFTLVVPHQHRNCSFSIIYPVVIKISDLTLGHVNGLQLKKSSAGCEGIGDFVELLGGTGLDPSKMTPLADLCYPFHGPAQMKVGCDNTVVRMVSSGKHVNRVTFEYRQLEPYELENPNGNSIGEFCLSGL
In words: activators of CRF receptor 2 with binding protein – uHTS hits, confirmation (AID 602473). The class given is functional. The settings on record: read-out: EC50_Mean.

Assay [6] has as its target T2, Corticotropin-releasing factor receptor 2/Corticotropin-releasing factor-binding protein. In words: Dose Response confirmation of uHTS hits for small molecule antagonists of the CRF-binding protein and CRF-R2 receptor complex. The note with it: read-out: IC50_Mean. The class given is functional.
Assay [7] has as its target Voltage-dependent T-type calcium channel subunit alpha-1H (Homo sapiens, UniProt O95180). The class given is functional.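 Also: channel activity triggered by adding a high calcium stimulation buffer.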
Assay [8] has as its target FAD-linked sulfhydryl oxidase ALR (Homo sapiens, UniProt P55789). In words: ALR-catalysed DTT oxidation blockers – biochemical, H2O2 detection, luminescence, cherry-pick, dose response (AID 493248).
Assay [9] concerns the target Melanin-concentrating hormone receptor 1 (Homo sapiens, UniProt Q99705). In words: Fluorescence-based counterscreen for antagonists of the G-protein coupled receptor 7 (GPR7): cell-based high throughput dose response assay to identify antagonists of the melanin-concentrating hormone receptor 1 (MCHR1). The class given is functional. Background: Counterscreens check selectivity or assay interference.

A short description of assay [10]: NIH3T3 cell viability loss – ATP luminescence, mouse fibroblasts, counter-screen, dose response (AID 2010).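 Also: cells exposed to compound for about 90 hours before reading.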 The class given is functional, cell-based.
Assay [11] is described as follows: Trypanosoma cruzi growth suppression in host cells – NIH3T3 host cells, beta-gal luminescence, confirmation (AID 2044).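 Also: intracellular parasites grown in NIH/3T3 mouse fibroblasts as host cells; luminescent beta-galactosidase reporter signal from transgenic T. cruzi replicating inside host cells; inhibitors lower the luminescence signal.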 The class given is functional, cell-based.
The target in assay [12] is Cytochrome P450 3A4 (Homo sapiens, UniProt P08684). The settings on record: Potency.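 Also: confirmatory qHTS run detecting inhibitors and substrates of CYP3A4.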
Chain of Cytochrome P450 3A4 (P08684 whole entry, the tested form may be a part): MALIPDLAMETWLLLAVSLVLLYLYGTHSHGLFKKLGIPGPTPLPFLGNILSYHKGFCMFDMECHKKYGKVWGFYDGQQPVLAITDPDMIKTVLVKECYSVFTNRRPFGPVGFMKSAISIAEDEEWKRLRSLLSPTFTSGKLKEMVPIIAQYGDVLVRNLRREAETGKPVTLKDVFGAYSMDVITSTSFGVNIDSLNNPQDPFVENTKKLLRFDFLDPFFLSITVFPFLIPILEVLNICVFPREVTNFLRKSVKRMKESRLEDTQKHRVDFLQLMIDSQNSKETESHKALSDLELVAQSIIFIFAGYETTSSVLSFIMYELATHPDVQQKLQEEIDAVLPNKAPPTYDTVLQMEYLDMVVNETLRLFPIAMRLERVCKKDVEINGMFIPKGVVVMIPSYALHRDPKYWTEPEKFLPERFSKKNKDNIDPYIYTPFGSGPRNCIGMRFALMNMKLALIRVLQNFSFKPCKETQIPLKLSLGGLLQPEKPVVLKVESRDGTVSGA
Assay [13] concerns the target T3, Carboxy-terminal domain RNA polymerase II polypeptide A small phosphatase 1 (Homo sapiens, UniProt Q9GZU7).
T3 sequence (Q9GZU7 whole entry): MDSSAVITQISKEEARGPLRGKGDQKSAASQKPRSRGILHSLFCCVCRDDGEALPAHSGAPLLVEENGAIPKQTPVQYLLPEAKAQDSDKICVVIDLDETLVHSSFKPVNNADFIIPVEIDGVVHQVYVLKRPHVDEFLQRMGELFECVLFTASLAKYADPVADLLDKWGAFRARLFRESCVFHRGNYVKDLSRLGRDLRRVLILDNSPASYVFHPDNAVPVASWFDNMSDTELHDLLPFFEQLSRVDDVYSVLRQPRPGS
In words: CTDSP1 inhibitors, concentration-response, biochemical, absorbance readout, ultra-high-throughput screen actives (AID 540297). The class given is functional.

The target of assay [14] is Eukaryotic translation initiation factor 4E (Mus musculus, UniProt P63073). The assay can be described thus: blockers of eIF4G binding by eIF4E – biochemical, TR-FRET, dose response (AID 855).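 Also: potency for disrupting eIF4E binding to eIF4GI seen as loss of FRET.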 The class given is functional. In general terms: TR-FRET usually uses a lanthanide donor and a delayed reading to cut background.
Chain of Eukaryotic translation initiation factor 4E (P63073 whole entry): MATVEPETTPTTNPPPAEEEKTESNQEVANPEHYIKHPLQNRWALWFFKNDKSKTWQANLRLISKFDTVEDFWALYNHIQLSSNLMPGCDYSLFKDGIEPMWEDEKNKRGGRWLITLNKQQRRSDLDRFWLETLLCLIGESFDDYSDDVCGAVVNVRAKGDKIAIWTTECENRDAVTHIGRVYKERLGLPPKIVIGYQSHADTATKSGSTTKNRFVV
Assay [15] in a line: HIV-1 Vif–A3G interaction blockers – biochemical, TR-FRET, GST-Vif 1-94, biotin-A3G peptide, dose response retest, primary screen (AID 1117319).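 Also: TR-FRET signal of purified GST-Vif binding a biotinylated A3G peptide; inhibitors lower the FRET signal by blocking Vif and A3G binding.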 The class given is functional.
For assay [16], the target named is T4, Protein Tat (Human immunodeficiency virus type 1 group M subtype B (isolate HXB2)(HIV-1), UniProt P04608).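 Also: tat binding to TAR RNA read out by fluorescence polarization.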
T4 sequence (P04608 whole entry): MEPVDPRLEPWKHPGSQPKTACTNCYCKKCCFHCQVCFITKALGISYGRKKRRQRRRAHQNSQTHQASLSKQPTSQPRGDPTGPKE
The class given is functional.

In assay [17] the target is T5, Caspase-3 (Homo sapiens, UniProt P42574).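 Also: Dose-response selectivity test against caspase-3 for candidate inhibitors of sentrin-specific proteases (SENPs).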
T5 sequence (P42574 whole entry): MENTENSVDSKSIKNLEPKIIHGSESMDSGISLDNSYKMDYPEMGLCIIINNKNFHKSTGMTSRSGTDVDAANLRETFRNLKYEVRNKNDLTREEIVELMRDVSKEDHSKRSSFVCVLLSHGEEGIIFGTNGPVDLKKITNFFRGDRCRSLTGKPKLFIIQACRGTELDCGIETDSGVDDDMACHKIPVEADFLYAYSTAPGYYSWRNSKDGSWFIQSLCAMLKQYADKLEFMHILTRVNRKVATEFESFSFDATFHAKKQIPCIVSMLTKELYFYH
The class given is functional.

Assay [18] has as its target T6, Sentrin-specific protease 6 (Homo sapiens, UniProt Q9GZR1).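 Also: Luminescence-based dose-response confirmatory assay of SENP6 inhibition, following up an ultra-high-throughput screen.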
T6 sequence (Q9GZR1 whole entry): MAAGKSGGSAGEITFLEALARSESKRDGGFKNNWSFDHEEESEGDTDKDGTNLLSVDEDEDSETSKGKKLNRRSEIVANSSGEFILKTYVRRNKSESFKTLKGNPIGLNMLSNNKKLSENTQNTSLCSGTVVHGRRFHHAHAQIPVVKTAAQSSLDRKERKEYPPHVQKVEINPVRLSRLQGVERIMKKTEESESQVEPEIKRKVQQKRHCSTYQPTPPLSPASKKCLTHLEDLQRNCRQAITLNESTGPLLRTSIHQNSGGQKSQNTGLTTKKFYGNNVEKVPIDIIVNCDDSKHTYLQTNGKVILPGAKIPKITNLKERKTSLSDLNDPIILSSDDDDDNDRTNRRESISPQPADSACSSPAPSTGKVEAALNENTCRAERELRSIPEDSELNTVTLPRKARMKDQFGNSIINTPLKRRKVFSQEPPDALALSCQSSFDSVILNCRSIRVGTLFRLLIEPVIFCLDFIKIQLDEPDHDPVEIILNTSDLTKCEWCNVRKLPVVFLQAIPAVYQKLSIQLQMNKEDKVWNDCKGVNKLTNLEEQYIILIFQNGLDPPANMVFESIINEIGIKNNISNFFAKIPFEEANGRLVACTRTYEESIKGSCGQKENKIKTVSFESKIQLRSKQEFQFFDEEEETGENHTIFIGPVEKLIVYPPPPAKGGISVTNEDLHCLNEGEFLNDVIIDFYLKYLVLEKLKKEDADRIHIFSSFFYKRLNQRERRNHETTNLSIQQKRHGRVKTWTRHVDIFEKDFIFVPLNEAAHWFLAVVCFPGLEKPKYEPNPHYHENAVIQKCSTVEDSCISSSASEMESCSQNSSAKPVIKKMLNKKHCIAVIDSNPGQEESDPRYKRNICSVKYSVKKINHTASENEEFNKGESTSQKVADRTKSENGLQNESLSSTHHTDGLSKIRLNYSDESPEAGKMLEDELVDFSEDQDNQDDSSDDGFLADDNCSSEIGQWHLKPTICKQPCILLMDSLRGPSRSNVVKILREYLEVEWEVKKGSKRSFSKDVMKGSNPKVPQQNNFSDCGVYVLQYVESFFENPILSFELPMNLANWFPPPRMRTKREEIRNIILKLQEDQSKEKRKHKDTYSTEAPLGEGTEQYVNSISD
The class given is functional.

For assay [19], the target named is T7, Sentrin-specific protease 8 (Homo sapiens, UniProt Q96LD8).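 Also: luminescence read-out of SENP8 inhibition, dose-response confirmation following an ultra-high-throughput screen.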
T7 sequence (Q96LD8 whole entry): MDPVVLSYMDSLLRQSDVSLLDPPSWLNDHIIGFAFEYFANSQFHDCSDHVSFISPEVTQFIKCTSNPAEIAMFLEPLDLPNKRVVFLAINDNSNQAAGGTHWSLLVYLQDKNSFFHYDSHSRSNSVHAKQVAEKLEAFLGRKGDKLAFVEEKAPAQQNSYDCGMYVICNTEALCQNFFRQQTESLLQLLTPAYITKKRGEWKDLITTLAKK
The class given is functional.

Assay [20] deals with T8, Sentrin-specific protease 7 (Homo sapiens, UniProt Q9BQF6).
T8 sequence (Q9BQF6 whole entry): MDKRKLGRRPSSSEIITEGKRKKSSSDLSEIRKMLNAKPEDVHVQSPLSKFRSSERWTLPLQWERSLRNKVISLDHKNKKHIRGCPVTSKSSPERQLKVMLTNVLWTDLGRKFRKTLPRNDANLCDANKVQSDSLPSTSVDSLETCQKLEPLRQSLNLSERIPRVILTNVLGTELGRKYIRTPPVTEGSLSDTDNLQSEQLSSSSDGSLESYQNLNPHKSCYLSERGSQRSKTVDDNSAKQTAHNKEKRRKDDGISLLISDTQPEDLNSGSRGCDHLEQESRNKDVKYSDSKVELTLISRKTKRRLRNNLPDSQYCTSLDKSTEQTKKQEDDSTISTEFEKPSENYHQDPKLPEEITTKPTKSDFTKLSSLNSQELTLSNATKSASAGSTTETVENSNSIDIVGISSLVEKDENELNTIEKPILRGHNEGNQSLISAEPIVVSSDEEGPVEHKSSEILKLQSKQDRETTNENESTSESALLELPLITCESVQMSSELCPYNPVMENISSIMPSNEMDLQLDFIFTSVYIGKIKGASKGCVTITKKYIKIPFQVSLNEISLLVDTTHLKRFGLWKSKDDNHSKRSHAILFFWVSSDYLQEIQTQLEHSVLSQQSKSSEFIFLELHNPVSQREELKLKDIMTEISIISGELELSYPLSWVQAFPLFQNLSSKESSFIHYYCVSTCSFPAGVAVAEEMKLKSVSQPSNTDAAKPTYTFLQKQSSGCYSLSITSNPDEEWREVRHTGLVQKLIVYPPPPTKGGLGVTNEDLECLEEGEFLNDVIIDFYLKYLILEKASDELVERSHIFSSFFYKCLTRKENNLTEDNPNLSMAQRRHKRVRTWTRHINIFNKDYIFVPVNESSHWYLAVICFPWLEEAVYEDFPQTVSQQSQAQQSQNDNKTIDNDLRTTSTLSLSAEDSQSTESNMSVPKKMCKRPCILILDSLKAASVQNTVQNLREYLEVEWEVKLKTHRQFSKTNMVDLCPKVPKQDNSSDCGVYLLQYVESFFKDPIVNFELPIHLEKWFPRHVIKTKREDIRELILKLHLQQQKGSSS
The class given is functional.

The structures appear in SMILES notation. Calls of active or inactive are those of the source.

Chain of Voltage-dependent T-type calcium channel subunit alpha-1H (O95180 whole entry): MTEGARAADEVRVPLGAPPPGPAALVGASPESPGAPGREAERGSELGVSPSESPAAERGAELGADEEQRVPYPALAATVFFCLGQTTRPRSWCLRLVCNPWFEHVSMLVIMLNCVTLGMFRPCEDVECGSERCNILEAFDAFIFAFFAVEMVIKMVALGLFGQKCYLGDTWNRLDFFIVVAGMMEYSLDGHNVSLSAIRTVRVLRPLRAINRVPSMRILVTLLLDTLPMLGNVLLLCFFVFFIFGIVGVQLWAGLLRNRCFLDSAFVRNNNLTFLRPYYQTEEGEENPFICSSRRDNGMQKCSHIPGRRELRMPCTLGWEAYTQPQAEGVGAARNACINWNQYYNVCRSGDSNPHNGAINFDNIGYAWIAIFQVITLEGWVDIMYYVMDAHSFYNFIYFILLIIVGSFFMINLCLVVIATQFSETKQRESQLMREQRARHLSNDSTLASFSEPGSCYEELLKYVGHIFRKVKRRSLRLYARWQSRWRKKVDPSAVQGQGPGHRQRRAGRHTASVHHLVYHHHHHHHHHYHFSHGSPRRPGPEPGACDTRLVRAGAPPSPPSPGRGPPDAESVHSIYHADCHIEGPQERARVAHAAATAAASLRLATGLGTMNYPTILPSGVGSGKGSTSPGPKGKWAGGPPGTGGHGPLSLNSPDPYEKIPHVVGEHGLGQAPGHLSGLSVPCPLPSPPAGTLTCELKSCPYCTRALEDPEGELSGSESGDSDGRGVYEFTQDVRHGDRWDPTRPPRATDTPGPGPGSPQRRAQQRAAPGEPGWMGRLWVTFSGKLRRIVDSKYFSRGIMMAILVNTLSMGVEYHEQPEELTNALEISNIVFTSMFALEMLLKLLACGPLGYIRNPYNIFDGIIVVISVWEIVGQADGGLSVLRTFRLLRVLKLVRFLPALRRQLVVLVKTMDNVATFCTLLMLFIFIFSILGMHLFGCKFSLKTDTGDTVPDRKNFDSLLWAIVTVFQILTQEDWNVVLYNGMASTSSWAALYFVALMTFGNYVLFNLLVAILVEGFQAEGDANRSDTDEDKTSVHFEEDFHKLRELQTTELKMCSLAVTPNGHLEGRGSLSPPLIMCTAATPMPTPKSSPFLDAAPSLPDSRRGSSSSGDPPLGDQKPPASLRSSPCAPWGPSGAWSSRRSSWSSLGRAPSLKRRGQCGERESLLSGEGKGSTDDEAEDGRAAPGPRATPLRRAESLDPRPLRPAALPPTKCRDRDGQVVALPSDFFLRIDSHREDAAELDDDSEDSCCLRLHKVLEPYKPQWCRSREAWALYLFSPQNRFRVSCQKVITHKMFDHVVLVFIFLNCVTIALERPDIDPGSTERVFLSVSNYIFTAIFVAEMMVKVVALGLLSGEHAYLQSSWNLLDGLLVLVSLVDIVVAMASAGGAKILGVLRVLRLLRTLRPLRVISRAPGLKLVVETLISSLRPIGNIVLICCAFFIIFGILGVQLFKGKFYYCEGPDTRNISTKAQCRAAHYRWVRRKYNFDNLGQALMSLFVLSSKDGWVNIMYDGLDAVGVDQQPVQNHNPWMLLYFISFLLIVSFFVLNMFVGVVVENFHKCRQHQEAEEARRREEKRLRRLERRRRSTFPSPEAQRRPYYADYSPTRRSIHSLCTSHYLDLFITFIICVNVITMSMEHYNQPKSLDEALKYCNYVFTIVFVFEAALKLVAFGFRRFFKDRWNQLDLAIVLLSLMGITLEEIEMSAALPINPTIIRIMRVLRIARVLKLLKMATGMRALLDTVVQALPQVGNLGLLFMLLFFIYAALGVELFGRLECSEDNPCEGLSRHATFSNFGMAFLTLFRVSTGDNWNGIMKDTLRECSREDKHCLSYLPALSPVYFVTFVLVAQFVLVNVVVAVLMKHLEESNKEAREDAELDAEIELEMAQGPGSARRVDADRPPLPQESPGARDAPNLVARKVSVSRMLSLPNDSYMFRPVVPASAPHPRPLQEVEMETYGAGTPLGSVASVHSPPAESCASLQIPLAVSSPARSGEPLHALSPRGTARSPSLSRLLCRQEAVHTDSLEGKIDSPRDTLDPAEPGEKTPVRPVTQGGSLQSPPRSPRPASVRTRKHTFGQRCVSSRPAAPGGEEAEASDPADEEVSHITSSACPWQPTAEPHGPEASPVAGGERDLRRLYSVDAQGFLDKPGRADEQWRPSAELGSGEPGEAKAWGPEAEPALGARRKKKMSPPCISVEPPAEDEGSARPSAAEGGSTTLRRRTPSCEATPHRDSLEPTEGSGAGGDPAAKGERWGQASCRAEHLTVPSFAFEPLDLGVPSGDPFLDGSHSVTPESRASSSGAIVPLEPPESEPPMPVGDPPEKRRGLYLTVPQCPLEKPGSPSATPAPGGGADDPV
T1 sequence (P11712 whole entry): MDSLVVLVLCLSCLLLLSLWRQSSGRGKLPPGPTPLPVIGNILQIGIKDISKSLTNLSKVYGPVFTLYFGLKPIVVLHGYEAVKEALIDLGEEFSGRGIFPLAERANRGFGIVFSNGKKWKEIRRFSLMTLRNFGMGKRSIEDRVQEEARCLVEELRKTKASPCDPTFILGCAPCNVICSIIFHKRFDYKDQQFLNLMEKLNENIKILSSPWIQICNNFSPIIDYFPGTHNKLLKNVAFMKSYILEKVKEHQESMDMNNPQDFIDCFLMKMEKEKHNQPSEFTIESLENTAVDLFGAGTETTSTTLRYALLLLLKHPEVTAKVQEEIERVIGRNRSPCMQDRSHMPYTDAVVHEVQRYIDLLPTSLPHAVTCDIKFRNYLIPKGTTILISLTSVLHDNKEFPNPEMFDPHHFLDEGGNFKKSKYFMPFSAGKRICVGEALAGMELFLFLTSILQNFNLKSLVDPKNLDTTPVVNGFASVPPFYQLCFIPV
Chain of Melanin-concentrating hormone receptor 1 (Q99705 whole entry): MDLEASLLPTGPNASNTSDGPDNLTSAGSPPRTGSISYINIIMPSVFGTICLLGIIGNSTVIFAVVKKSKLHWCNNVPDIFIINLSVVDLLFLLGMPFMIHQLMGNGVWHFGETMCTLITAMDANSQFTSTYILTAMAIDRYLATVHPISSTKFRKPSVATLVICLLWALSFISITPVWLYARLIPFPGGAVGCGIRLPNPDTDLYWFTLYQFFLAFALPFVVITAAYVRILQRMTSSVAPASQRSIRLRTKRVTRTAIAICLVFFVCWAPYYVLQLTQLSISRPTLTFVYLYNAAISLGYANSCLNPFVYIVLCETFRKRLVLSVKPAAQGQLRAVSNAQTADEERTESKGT
Chain of FAD-linked sulfhydryl oxidase ALR (P55789 whole entry): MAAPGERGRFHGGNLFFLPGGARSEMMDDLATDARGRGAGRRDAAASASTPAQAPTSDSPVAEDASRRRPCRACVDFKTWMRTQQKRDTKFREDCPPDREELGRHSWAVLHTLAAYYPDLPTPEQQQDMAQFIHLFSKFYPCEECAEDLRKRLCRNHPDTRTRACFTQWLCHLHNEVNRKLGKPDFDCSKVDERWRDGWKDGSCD

`CC(C)C(c1nnnn1Cc1ccccc1)N(CCCO)Cc1cc2cc3c(cc2nc1O)OCO3` (stereo unspecified): the EC50 in assay [1] is > 50 µM (active).
For orientation: AC50 means the midpoint of the concentration-response curve, whichever way the signal moves. Regarding `C[C@@H](/C=C\c1cccc(Oc2ccc(F)cc2)c1)N(O)C(N)=O`, the AC50 in [2] was 25.1 µM (inconclusive); in assay [3], 10 µM (inconclusive); in assay [4] it was 31.6 µM (inconclusive).
As to `Cc1ccccc1NC(=O)c1ccc(-c2ccc(Cl)cc2Cl)o1`, the EC50 in assay [5] is > 53 µM (inactive); in assay [7], 7.96 µM (active). Further, the IC50 in [6] was > 47.1 µM (inactive).
With `FC(F)(F)c1cc(C(F)(F)F)c2ccc(N3CCN(c4ccc(Cl)cc4)CC3)nc2n1`, in assay [7], the EC50 is 5.43 µM (active).
For the molecule `CCn1c(CNc2ccc(Cl)cc2)nnc1SCCN1CCCCC1`, in assay [8], the AC50 was 8.49 µM (active). Further, in assay [9], the IC50 is on record as 21.5 µM (not active).
Turning to `CCNc1nc(N)nc(Oc2ccc(OCCOc3ccc(Cl)cc3Cl)nn2)n1`, the results for the EC50 in assay [1], in assay [10] and in assay [11] were > 50 µM (active), 6.72 µM (active) and 0.668 µM (active), respectively.
As for `Cc1nn(Cc2c(F)c(F)c(F)c(F)c2F)c(C)c1NC(=O)c1ccc(COc2ccc(F)cc2)o1`, the EC50 in [7] is 4.88 µM (active).
As for `CC1CCC2C(=O)OC(CO)CN2C1c1ccc(Br)cc1` (stereo unspecified), the AC50 was 3.16 µM (inconclusive) in assay [12] and 3.98 µM (inconclusive) in [2].
With `Cc1ccc([N+](=O)[O-])cc1NC(=O)Cc1cccs1`, the results for the IC50 in assay [13] and in assay [14] were 4.16 µM (active) and 50 µM (inactive), respectively.
As to `Cc1ccc(N2C(=O)[C@@H]3[C@H](C2=O)[C@H]2C=CC=NN2[C@@H]3C(=O)Nc2ccc(Cl)cc2)cc1`, the IC50 in assay [15] and in assay [16] was > 100 µM (active) each time. Moreover, the EC50 in [1] is > 50 µM (active).
Consider `COc1ccc(/C=C/C(=O)c2ccccc2O)cc1`, for which the AC50 in assay [2] is 3.98 µM (inconclusive). Moreover, the IC50 in assay [17] was 23.1 µM (active); in [18], 6 µM (active); in [19] it was 10.6 µM (active); in assay [20] it was 3.93 µM (active).
